Converted amounts (≈) assume the structure as drawn. “And” between values parts separate entries of the source, which are not always exact repeats. Equal entries are not always repeated. Where two headings read alike, the source gives them in different places.
How the values were obtained:
S. apis = format: cell-based
[1] = tested on: aster yellow phytoplasma (AYP); format: in vivo, Catharanthus roseus
[2] = tested on: X. fastidiosa-infected grapevines; conditions: in vivo
[3] = tested on: Xylella sp. strains Shiraz, Melody, Coyaga; format: cell-based; conditions: 10^8 CFU
grape = conditions: in vivo
Xylella = format: cell-based
Mycoplasma iowae = format: cell-based
S. melliferum = format: cell-based
[4] = tested on: X. fastidiosa-infected grapevines; conditions: in vivo; remark: listed apart in the source
healthy vines = conditions: in vivo
Spiroplasma citri = format: cell-based
E. coli = conditions: cited from earlier work
S. floricola = format: cell-based
Xylella fastidiosa = format: in vivo, grapevines
[5] = tested on: Xylella fastidiosa strains; assay: microbe, parasite or virus in culture; format: cell-based; conditions: for MIC: Xylella fastidiosa

## CC(C)=CCCC(C)=CC=O [citral, 3,7-dimethyl-2,6-octadien-1-al]
S. apis
  color changing units: 10^9 CCUs and 10^7 CCUs and 10^3 CCUs
[1]; 500 ppm citral in water, 500 mL per plant Day 8 and Day 14, three plants, as of Day 108
  AYP symptoms of treated plants: remained symptomless
[1]; 500 ppm, 500 mL per plant Day 8 and Day 15, three plants, as of Day 174
  AYP symptoms of treated periwinkles: remained symptomless
[1]; in vivo
  delay of symptom development: 22 days
[2]
  average branch length longer than control vines: ~6 inches
[3]; strain Coyaga, 3.25 ppm
  Xylella growth (CFU): TNTC
[3]; strain Coyaga, 62.5 ppm
  Xylella growth (CFU): TNTC
[3]; strain Melody, 3.25 ppm
  Xylella growth (CFU): TNTC
[3]; strain Melody, 62.5 ppm
  Xylella growth (CFU): TNTC
[3]; strain Shiraz, 3.25 ppm
  Xylella growth (CFU): TNTC
[3]; strain Shiraz, 62.5 ppm
  Xylella growth (CFU): TNTC**
grape; grape
  concentration at which phytotoxic: approximately 5000 ppm
grape
  phytotoxicity in grape: phytotoxicity
Xylella; 62.5 ppm citral
  effect on Xylella: No complete kill but get stasis
Xylella; 125 ppm citral
  kill of Xylella: 100% kill
Xylella; 500 ppm citral
  kill of Xylella: 100% kill
Mycoplasma iowae
  color changing units: 10^8 CCUs and 10^7 CCUs and 10^6 CCUs and 10^5 CCUs and 10^4 CCUs
  kill of cells by the treatment: not enough to kill
S. melliferum
  cells that survived the treatment: no cells
[4]
  average fruit yield: about 4.8 lbs of fruit per vine
  average increased yield: about 6.25%
Healthy vines
  weekly observations of treated healthy vines: no phytoplasma on any plants
Spiroplasma citri
  cells that survived the treatment: no cells
E. coli
  citral in growth media that reduced the concentration of E. coli: more than 0.01%
  citral in growth media with bactericidal effect: 0.08%
S. floricola
  color changing units: 10^9 CCUs and 10^6 CCUs
Xylella fastidiosa; other vines, treated Day 206 and Day 213, sampled on Day 252
  treated vines positive for bacteria (isolation and ELISA): Four out of 15
Xylella fastidiosa; treated Day 0 and Day 7, sampled on Day 252
  treated vines positive for presence of bacteria (isolation and ELISA): Three out of 15
[5]; 250 ppm, 24-hr. treatment
  effect on cells of X. fastidiosa strains: killed cells of all 11 strains
[5]; 4 grape strains, 2 sycamore strains, and 1 peach strain
  MIC: 125 µg/mL (≈ 821 µM)
[5]; 24 h, strain 2#6, Plum leaf scald
  MIC: 62.5 µg/mL (≈ 411 µM)
[5]; 24 h, strain 3SV, Pierce's disease of grapevine
  MIC: 125 µg/mL (≈ 821 µM)
[5]; 24 h, strain 4#5, Phony disease of peach
  MIC: 125 µg/mL (≈ 821 µM)
[5]; 24 h, strain 4BD2, Pecan leaf scorch
  MIC: 62.5 µg/mL (≈ 411 µM)
[5]; 24 h, strain #6, Oleander leaf scorch
  MIC: 62.5 µg/mL (≈ 411 µM)
[5]; 24 h, strain Cayuga, Pierce's disease of grapevine
  MIC: 125 µg/mL (≈ 821 µM)
[5]; 24 h, strain Melody, Pierce's disease of grapevine
  MIC: 125 µg/mL (≈ 821 µM)
[5]; 24 h, strain SLS#61, Sycamore leaf scorch
  MIC: 125 µg/mL (≈ 821 µM)
[5]; 24 h, strain SLS-DC, Sycamore leaf scorch
  MIC: 125 µg/mL (≈ 821 µM)
[5]; 24 h, strain Shiraz, Pierce's disease of grapevine
  MIC: 125 µg/mL (≈ 821 µM)
[5]; 24 h, strain Yugo, Pierce's disease of grapevine
  MIC: 62.5 µg/mL (≈ 411 µM)
[5]; strains from grape, plum, pecan, and oleander
  MIC: 62.5 µg/mL (≈ 411 µM)

— patent publication US20040248764A1 (priority 2001, published 2004)
